# Experimental data: patent US20230389546A1, “ANTIMICROBIAL COMPOSITION” (The Procter & Gamble Company, priority 2022, published 2023)
# Columns and labels:
# [1] = test system: Gram Negative bacteria; test: Surface Antimicrobial Kill Testing, normalized to triclosan internal standard, gram negative; type: cell-based, K. pneumonia (Kp) / P. aeruginosa (Pa); details: for antimicrobial benefit in words, gram-negative: Table 2B formulas
# Procedure: (§1) Inoculum is prepared by streaking microorganism onto a Tryptic Soy Agar (TSA) plate and incubating for 24 h at 33° C. Plated bacteria is resuspended in saline until the transmittance percentage falls within the accepted range for ˜10^8 cfu/mL. For K. pneumonia (Kp) and P. aeruginosa (Pa), this is 31.00-33.00% T. For S. aureus (Sa) this is 23.00-25.00% T. A 10× concentration is made by spinning down the prepared inoculum, removing the supernatant saline from the bacterial pellet, then resuspending the pellet in 1/10th of the original volume of saline. The final inoculum is prepared with 5% of “soil” in the form of Fetal Bovine Serum (FBS). A 18×18 mm sterile glass coverslip is placed into an appropriate container (e.g., petri dish). 20 μL of prepared inoculum is added to the glass coverslip. Inoculum is then air-dried for 30 minutes in a 36° C. incubator. After drying, 40 μL of test sample is added on top of the dried inoculum. This is incubated at room temperature for the desired contact time. 5 mL of neutralizing media (Modified Letheen Broth+Tween+Lecithin (MLBTL)) is added to the coverslip and shaken on an orbital shaker for 5 minutes to ensure proper neutralization and extraction. Viability is then assessed of the neutralized and extracted sample by traditional/alternative microbiological techniques. The normalized antimicrobial activity reported in the performance examples below was generated from detection time data obtained as described in the Surface Antimicrobial Kill Test Method. To account for day-to-day variability an internal standard was tested with each series. The internal standard was a composition of 0.25 wt % Triclosan, Sigma Aldrich (St. Louis, MO, USA; CAS #3380-34-5, 97.0-103.0% (active substance, GC)), 50 wt % DMSO, and 49.75 wt % H2O, with a final solution pH of 7.7. Normalized activity is reported following the equation 1 below. Normalized Activity=(αΔDT−βΔDT)/(γΔDT−βΔDT) equation 1. where, αΔDT is the average detection time of the antimicrobial compound, and γΔDT is the average detection time of the reference triclosan internal standard, and βΔDT is the average detection time of the background unperturbed bacteria. Modified amino acids of the present disclosure were tested as aqueous solutions in the Surface Antimicrobial Kill Testing Method above. To prepare test solutions modified amino acids were first dissolved in the appropriate solvent. Second the selected surfactant is added to the mixture. After vortex (1 min, Vortex-2 Genie, vortex speed 8) mixing, the samples were then diluted with ½ portion of reverse osmosis water (RO water, Millipore Direct-Q™, pH 6). The aqueous solution was then vortexed (1 min, Vortex-2 Genie, vortex speed 8), to which the second ½ portion of water is added. The pH of the solution was then adjusted to the target pH using either 1N HCl, Glacial Acetic Acid, or 1N NaOH. The final solution was then vortexed (1 min, Vortex-2 Genie, vortex speed 8). An example batch sheet is provided below in Table 1. In Performance Examples 1-5 below, formulations comprising solvent, surfactant, and antimicrobial agents according to the present disclosure (e.g., based on modified amino acid amides), are evaluated via microbial surface kill tests according to the Surface Antimicrobial Kill Testing Method provided above. After treatment, microbial growth is referenced and reported to a triclosan sample and unaltered microbes according to the Normalization of Antimicrobial Activity provided above.
# [2] = test system: Gram Positive bacteria; test: Surface Antimicrobial Kill Testing, normalized to triclosan internal standard, gram positive; type: cell-based, S. aureus (Sa); details: for antimicrobial benefit in words, gram-positive: Table 2B formulas
# Procedure: as §1
# [3] = Table 2B, compound 0.5 wt %, DPGME 5 wt %, Surfonic L24-9 1 wt %, 0.1M Acetic acid buffer pH 4.5
# [4] = Table 3B, compound 0.5 wt %, DPGME 5 wt %, Surfonic L24-9 1 wt %, 0.1M Acetic acid buffer pH 4.5
# [5] = 0.5 wt %, 5 wt % DPGME, water, pH 4.5, EH6 1 wt %
# [6] = 0.5 wt %, 5 wt % DPGME, water, pH 4.5, Miranol Ultra 1 wt %
# [7] = 0.5 wt %, 5 wt % DPGME, water, pH 4.5, Plantaren 2000 1 wt %
# [8] = 0.5 wt %, 5 wt % DPGME, water, pH 4.5, Surfonic L24-9 1 wt %
# [9] = 0.5 wt %, 5 wt % DPGME, water, pH 4.5, Tween 80 1 wt %
# [10] = 0.5 wt %, 5 wt % DPGME, water, pH 9, Miranol Ultra 1 wt %
# [11] = 0.5 wt %, 5 wt % DPGME, water, pH 9, SLS 1 wt %
# [12] = 0.5 wt %, 5 wt % DPGME, water, pH 9, Surfonic L24-9 1 wt %
# [13] = Table 4, variety of surfactants
smiles,measurement,setting,value
"CN(C)C(=O)[C@H](N)Cc1ccccc1 [Comparative Example C1, reference compound]","antimicrobial benefit in words, gram-negative",[1],fail to show any meaningful benefit
same,Gram Negative Referenced Microbial Activity,[1]; [3],0.2
same,"antimicrobial benefit in words, gram-positive",[2],fail to show any meaningful benefit
same,Gram Positive Referenced Microbial Activity,[2]; [3],0.1
CCCCCCNC(=O)[C@@H](N)Cc1c[nH]c2ccccc12 [Synthetic Example 1],Gram Negative Referenced Microbial Activity,[1]; [4],2.2
same,Gram Positive Referenced Microbial Activity,[2]; [4],0.3
CCCCCCCCNC(=O)[C@@H](N)Cc1c[nH]c2ccccc12 [Synthetic Example 2],Gram Negative Referenced Microbial Activity,[1]; [5],≥4.9
same,Gram Negative Referenced Microbial Activity,[1]; [6],≥4.9
same,Gram Negative Referenced Microbial Activity,[1]; [7],≥4.9
same,Gram Negative Referenced Microbial Activity,[1]; [8],2.5
same,Gram Negative Referenced Microbial Activity,[1]; [9],≥4.9
same,Gram Negative Referenced Microbial Activity,[1]; [10],0.1
same,Gram Negative Referenced Microbial Activity,[1]; [11],0.0
same,Gram Negative Referenced Microbial Activity,[1]; [12],0.7
same,Gram Negative Referenced Microbial Activity,[1]; [4],2.5
same,pH cutoff of antimicrobial efficacy,"[1]; Table 4, gram negative and gram positive",cutoff at pH 9
same,"antimicrobial efficacy in words, gram-negative",[1]; [13],shows antimicrobial efficacy
same,Gram Positive Referenced Microbial Activity,[2]; [5],1.6
same,Gram Positive Referenced Microbial Activity,[2]; [6],0.7
same,Gram Positive Referenced Microbial Activity,[2]; [7],1.3
same,Gram Positive Referenced Microbial Activity,[2]; [8],1.0
same,Gram Positive Referenced Microbial Activity,[2]; [9],1.2
same,Gram Positive Referenced Microbial Activity,[2]; [10],0.2
same,Gram Positive Referenced Microbial Activity,[2]; [11],0.2
same,Gram Positive Referenced Microbial Activity,[2]; [12],0.2
same,Gram Positive Referenced Microbial Activity,[2]; [4],1.0
same,"antimicrobial efficacy in words, gram-positive",[2]; [13],shows antimicrobial efficacy
same,Gram Positive Referenced Microbial Activity,"[2]; compound 0.5 wt %, Surfonic L 24-9 1 wt %, 5 wt % DPGME, water, pH 4.5, aged 14 days",1.1
same,Gram Positive Referenced Microbial Activity,"[2]; compound 0.5 wt %, Surfonic L 24-9 1 wt %, 5 wt % DPGME, water, pH 4.5, not aged",1.0
CCCCCCCCCNC(=O)[C@@H](N)Cc1c[nH]c2ccccc12 [Synthetic Example 3],Gram Negative Referenced Microbial Activity,[1]; [4],2.2
same,Gram Positive Referenced Microbial Activity,[2]; [4],0.3
CCCCCCCCNC(=O)[C@@H](N)Cc1ccccc1 [Synthetic Example 5],"antimicrobial benefit in words, gram-negative",[1],demonstrate meaningful gram-negative activity
same,Gram Negative Referenced Microbial Activity,[1]; [3],≥3.9
same,"antimicrobial benefit in words, gram-positive",[2],shows improvement against gram-negative and gram-positive bacteria
same,Gram Positive Referenced Microbial Activity,[2]; [3],0.7
CCN(C(=O)C(N)Cc1ccccc1)C1CCCCC1 (stereo not drawn) [Synthetic Example 6],"antimicrobial benefit in words, gram-negative",[1],demonstrate meaningful gram-negative activity
same,Gram Negative Referenced Microbial Activity,[1]; [3],2.7
same,Gram Positive Referenced Microbial Activity,[2]; [3],0.2
CCCCCCCCCCCCNC(=O)[C@@H](N)Cc1ccccc1 [Synthetic Example 7],"antimicrobial benefit in words, gram-negative",[1],fail to show any meaningful benefit
same,Gram Negative Referenced Microbial Activity,[1]; [3],0.1
same,"antimicrobial benefit in words, gram-positive",[2],fail to show any meaningful benefit
same,Gram Positive Referenced Microbial Activity,[2]; [3],0.1
